Laboratory results published in the supplement of paper PMC10307832.

What was measured:
Test in all cases: relative viability (nuclei count vs DMSO), 5 days (fraction); higher = more cells survive
SGI-1776 + Navitoclax = compound: CN1CCC(CNc2ccc3ncc(-c4cccc(OC(F)(F)F)c4)n3n2)CC1 [SGI-1776] + CC1(C)CCC(c2ccc(Cl)cc2)=C(CN2CCN(c3ccc(C(=O)NS(=O)(=O)c4ccc(N[C@H](CCN5CCOCC5)CSc5ccccc5)c(S(=O)(=O)C(F)(F)F)c4)cc3)CC2)C1 [Navitoclax] (partner 0.5 µM)
Method in brief: (§1)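 Lung cancer cell lines were pin-tool dosed in 1536-well plates on the day after seeding, with either a lone drug or a fixed anchor-drug dose plus five library-drug doses (not always all listed) in √10 steps. Nuclei were counted on 4× images after 5 days. Relative viability is the ratio of treated-well to vehicle-well nuclei counts, with each value a median of duplicate plates.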

[1] = compound: C1COCCN1C2=NC(=NC3=C2OC4=C3C=CC=N4)C5=CC(=CC=C5)NC(=O)C6=CN=C(C=C6)N + CC1(C)CCC(c2ccc(Cl)cc2)=C(CN2CCN(c3ccc(C(=O)NS(=O)(=O)c4ccc(N[C@H](CCN5CCOCC5)CSc5ccccc5)c(S(=O)(=O)C(F)(F)F)c4)cc3)CC2)C1 [Navitoclax] (partner 0.5 µM)
Method in brief: as §1

Entinostat + Pemetrexed = compound: Nc1ccccc1NC(=O)c1ccc(CNC(=O)OCc2cccnc2)cc1 [Entinostat] + Nc1nc2[nH]cc(CCc3ccc(C(=O)N[C@@H](CCC(=O)O)C(=O)O)cc3)c2c(=O)[nH]1 [Pemetrexed] (partner 0.2 µM)
Method in brief: as §1

SGI-1776 + Palbociclib = compound: CN1CCC(CNc2ccc3ncc(-c4cccc(OC(F)(F)F)c4)n3n2)CC1 [SGI-1776] + CC(=O)c1c(C)c2cnc(Nc3ccc(N4CCNCC4)cn3)nc2n(C2CCCC2)c1=O [Palbociclib] (partner 0.5 µM)
Method in brief: as §1

Cell Line	relative viability (SGI-1776 + Navitoclax; first compound 0.08 µM)	relative viability (SGI-1776 + Navitoclax; first compound 0.8 µM)	relative viability (SGI-1776 + Navitoclax; first compound 2.53 µM)	relative viability (SGI-1776 + Navitoclax; first compound 8 µM)	relative viability ([1]; first compound 0.02 µM)	relative viability ([1]; first compound 0.06325 µM)	relative viability ([1]; first compound 0.2 µM)	relative viability ([1]; first compound 0.6325 µM)	relative viability ([1]; first compound 2 µM)	relative viability (Entinostat + Pemetrexed; first compound 0.02 µM)	relative viability (Entinostat + Pemetrexed; first compound 0.06325 µM)	relative viability (Entinostat + Pemetrexed; first compound 0.2 µM)	relative viability (Entinostat + Pemetrexed; first compound 0.6325 µM)	relative viability (Entinostat + Pemetrexed; first compound 2 µM)	relative viability (SGI-1776 + Palbociclib; first compound 0.08 µM)	relative viability (SGI-1776 + Palbociclib; first compound 0.8 µM)	relative viability (SGI-1776 + Palbociclib; first compound 2.53 µM)	relative viability (SGI-1776 + Palbociclib; first compound 8 µM)
NCI-H838	1.12	1.22	1.14	0.869	0.92	1.14	1.09	0.946	0.437	0.231	0.222	0.268	0.247	0.183	0.228	0.222	0.204	0.155
LOU-NH91	0.747	0.744	0.698	0.445	0.658	0.728	0.765	0.74	0.586	0.381	0.333	0.326	0.341	0.379	0.647	0.552	0.536	0.537
BEN	0.0663	0.049	0.0583	0.0494	0.0527	0.058	0.0742	0.0452	0.0457	0.88	1.02	0.891	0.564	0.413	0.447	0.476	0.457	0.47
NCI-H2085	1.18	1.07	1.2	0.945	1.15	1.12	1.05	1.1	0.602	0.826	0.918	0.869	0.712	0.532	0.491	0.482	0.468	0.444
NCI-H1792	0.614	0.72	0.654	0.479	0.571	0.675	0.718	0.53	0.462	0.844	0.765	0.896	0.374	0.191	0.659	0.626	0.59	0.615
EPLC-272H	1.15	1.15	1.25	0.969	1.23	1.06	1.13	1.08	0.893	0.391	0.322	0.304	0.244	0.248	0.32	0.336	0.354	0.226
EKVX	1.03	0.907	0.999	0.888	1.17	0.939	0.944	0.805	0.684	0.402	0.376	0.385	0.344	0.273	0.436	0.431	0.37	0.318
NCI-H1666	0.907	0.772	0.836	0.705	0.856	0.96	0.722	0.687	0.573	0.866	0.989	0.913	0.75	0.579	0.64	0.66	0.614	0.663
HCC-15	0.707	0.728	0.599	0.475	0.678	0.786	0.684	0.605	0.452	0.237	0.215	0.237	0.197	0.159	0.694	0.666	0.772	0.51
LCLC-97TM1	0.533	0.528	0.314	0.355		0.532	0.673	0.546	0.43	0.149	0.169	0.148	0.196	0.168	0.252	0.231	0.198	0.228
NCI-H2347	0.886	0.787	0.808	0.673	0.854	0.895	0.815	0.747	0.528	0.442	0.447	0.339	0.369	0.341	0.414	0.455	0.44	0.426
NCI-H1915	0.795	0.802	0.793	0.781	0.757	0.838	0.824	0.836	0.873	0.417	0.536	0.475	0.403	0.188	0.534	0.541	0.554	0.509
NCI-H647	1.1	0.993	1.18	0.715	1.18	1.11	1.22	1.16	0.704	0.192	0.184	0.161	0.0878	0.0714	0.506	0.367	0.319	0.258
NCI-H1650	1.22	1.21	0.981	0.762	1.27	1.34	1.06	1.32	0.539	0.389	0.455	0.44	0.359	0.241	0.373	0.354	0.344	0.228
NCI-H520	1.14	1.25	1.13	1.08	1.12	1.17	1.06	1.07	0.713	0.644	0.712	0.875	0.689	0.418	0.267	0.219	0.191	0.16
HCC-366	1.06	0.964	1.2	1.09	1.13	1.21	1	1.11	0.526	0.185	0.141	0.159	0.0978	0.0735	0.395	0.476	0.368	0.33
NCI-H2087	0.963	1.04	1.04	0.861	1.02	1.03	0.925	0.918	0.608	0.68	0.581	0.67	0.613	0.304	0.299	0.231	0.293	0.204
PC-3 [JPC-3]	0.704	0.767	0.862	0.699	0.823	0.847	0.848	0.741	0.615	1.36	1.05	0.924	0.686	0.461	0.518	0.534	0.533	0.49
